Laboratory results as given in patent US20210221784A1, “COMPOUNDS AND COMPOSITIONS FOR THE TREATMENT OF PAIN” (Université de Strasbourg, priority 2018, published 2021).
pIC50, pKi: −log10 of the molar value.

Assays:
hNPFFR2 = molecular target: T1, hNPFFR2 (Homo sapiens, UniProt Q9Y5X5); assay: Radioligand binding competition, membranes from CHO cells expressing hNPFFR2; settings: 0.015 nM [D-Tyr1[125I], N-MePhe3]-NPFF, 1 hr at 25° C., read-out: NPFF2-R Ki
T1 construct: expressed in transfected cells; membranes
T1 sequence (Q9Y5X5 whole entry): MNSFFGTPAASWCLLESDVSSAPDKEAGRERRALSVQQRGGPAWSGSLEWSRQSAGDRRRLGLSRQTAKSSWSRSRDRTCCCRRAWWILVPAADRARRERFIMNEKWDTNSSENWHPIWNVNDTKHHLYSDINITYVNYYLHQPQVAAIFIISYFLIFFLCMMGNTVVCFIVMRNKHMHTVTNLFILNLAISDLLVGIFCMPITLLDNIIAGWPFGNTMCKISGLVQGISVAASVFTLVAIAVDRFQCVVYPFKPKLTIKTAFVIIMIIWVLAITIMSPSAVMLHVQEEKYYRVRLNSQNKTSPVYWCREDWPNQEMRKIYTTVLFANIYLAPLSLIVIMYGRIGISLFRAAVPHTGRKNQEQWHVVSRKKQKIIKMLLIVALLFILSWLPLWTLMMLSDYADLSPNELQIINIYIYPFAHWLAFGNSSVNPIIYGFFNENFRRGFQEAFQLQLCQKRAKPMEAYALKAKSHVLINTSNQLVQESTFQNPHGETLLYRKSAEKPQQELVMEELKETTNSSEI
Description: (§1) Competition experiments with membranes from CHO cells stably expressing hNPFFR1 and hNPFFR2 were performed essentially as described in Elhabazi, K., et al. Neuropharmacology, 2013. 75C, 164-171., Briefly, hNPFFR1 or hNPFFR2 membranes (5 to 10 μg of proteins) were incubated (1 hr at 25° C.; 0.25 mL total volume) with 0.015 nM [D-Tyr1[125I], N-MePhe3]-NPFF (Hartmann Analytic GmbH) in 50 mM HEPES (pH 7.4), 1 mM CaCl2, 1 mM MgCl2 and 0.1% bovine serum albumin. Non-specific binding was determined in the presence of 10 μM RFRP-3. Incubation was terminated by rapid filtration through a 96-well GF/B unifilter apparatus (Perkin Elmer Life and Analytical Sciences, Courtaboeuf, France). Unifilters were washed five times with binding buffer, then dried for 1 h at 65° C. After addition of 40 μL scintillation cocktail (Microscint-O, Perkin Elmer) per well, bound radioactivity was determined on a TopCount scintillation counter (Perkin Elmer).

hNPFFR1 = molecular target: T2, hNPFFR1 (Homo sapiens, UniProt Q9GZQ6); assay: Radioligand binding competition, membranes from CHO cells expressing hNPFFR1; settings: 0.015 nM [D-Tyr1[125I], N-MePhe3]-NPFF, 1 hr at 25° C., read-out: NPFF1-R Ki
T2 construct: expressed in transfected cells; membranes
T2 sequence (Q9GZQ6 whole entry): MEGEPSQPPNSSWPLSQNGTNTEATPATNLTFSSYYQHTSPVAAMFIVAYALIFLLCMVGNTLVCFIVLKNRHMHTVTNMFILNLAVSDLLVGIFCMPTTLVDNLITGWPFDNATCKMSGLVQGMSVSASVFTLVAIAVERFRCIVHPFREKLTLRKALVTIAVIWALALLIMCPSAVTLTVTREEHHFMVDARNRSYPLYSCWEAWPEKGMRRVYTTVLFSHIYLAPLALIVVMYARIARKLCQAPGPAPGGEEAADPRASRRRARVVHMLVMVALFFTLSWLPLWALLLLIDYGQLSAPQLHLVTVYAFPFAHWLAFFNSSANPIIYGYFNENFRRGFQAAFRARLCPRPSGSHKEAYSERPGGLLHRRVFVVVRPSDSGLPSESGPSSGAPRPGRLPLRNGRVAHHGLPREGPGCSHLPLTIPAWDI
Description: as §1

[1] = molecular target: T3, human NPFFR1 (hNPFFR1) receptor (Homo sapiens, UniProt Q9GZQ6); assay: Human NPFFR1 evaluation using BRET biosensors in HEK-293 T cells; type: cell-based; settings: hNPFFR1 in HEK-293 T cells, stimulated by EC80 RFRP-3, read-out: IC50 of antagonist activity
T3 construct: expressed in transfected cells; host or cells: HEK-293 T cells, transient co-transfection
T3 sequence (Q9GZQ6 whole entry): as above
Procedure, shortened: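 HEK-293 T cells transiently co-expressing hNPFFR1, GαoB and a Gi-effector BRET biosensor pair; agonist read after 10 min compound alone, then antagonism after EC80 RFRP-3 for 10 min. IC50 from 20-point curves over 6 logs, duplicates in two independent experiments.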

Structure (SMILES) | pKi (hNPFFR2) | pKi (hNPFFR1) | pIC50 [1]
COc1ccccc1-c1ccc(N)nc1C(C)C [Compound 6h, 6-isopropyl-5-(2-methoxyphenyl)pyridin-2-amine] | 5.82 | 7.45 | 6.00 to 6.30
Nc1ccc(Cc2ccc(Cl)cc2)c(N)n1 [Compound 10c, 3-(4-chlorobenzyl)pyridine-2,6-diamine] | 5.57 | 7.25 | 6.00 to 6.30
Nc1ccc(Cc2ccccc2Cl)c(N)n1 [Compound 10e, 3-(2-chlorobenzyl)pyridine-2,6-diamine] | 6.35 | 8.43 | 6.30 to 7.00
CCc1nc(N)ccc1-c1cccc(Cl)c1Cl [Compound 6c, 5-(2,3-dichlorophenyl)-6-ethylpyridin-2-amine] | 6.10 | 7.60 | 6.00 to 6.30
COc1ccccc1-c1ccc(N)nc1C1CC1 [Compound 6i, 6-cyclopropyl-5-(2-methoxyphenyl)pyridin-2-amine] | 5.85 | 7.51 | 6.00 to 6.30
Nc1ccc(-c2cccc(C(F)(F)F)c2Cl)c(N)n1 [Compound 1p, 3-(2-chloro-3-(trifluoromethyl)phenyl) pyridine-2,6-diamine] | 5.34 | 7.19 | 6.30 to 7.00
CC(C)Nc1nc(N)ccc1-c1cccc(Cl)c1Cl [Compound 5e, 3-(2,3-dichlorophenyl)-N2-isopropylpyridine-2,6-diamine] | 5.72 | 6.60 | < 6.00
Nc1ccc(-c2ccccc2-c2ccccc2)c(N)n1 [Compound 1r, 3-([1,1′-biphenyl]-2-yl)pyridine-2,6-diamine] | 6.15 | 7.68 | 6.30 to 7.00
COc1cccc(-c2ccc(N)nc2N)c1OC [Compound 2l, 3-(2,3-dimethoxyphenyl) pyridine-2,6-diamine] | 6.05 | 7.59 | < 6.00
CCCc1nc(N)ccc1-c1ccccc1OC [Compound 6g, 5-(2-methoxyphenyl)-6-propylpyridin-2-amine] | 6.33 | 8.20 | 6.30 to 7.00
Nc1ccc(Cc2ccc(Cl)cc2Cl)c(N)n1 [Compound 10f, 3-(2,4-dichlorobenzyl)pyridine-2,6-diamine] | 6.30 | 8.43 | 6.30 to 7.00
CCNc1nc(N)ccc1-c1cccc(Cl)c1Cl [Compound 5b, 3-(2,3-dichlorophenyl)-N2-ethylpyridine-2,6-diamine] | 5.66 | 7.10 | 6.00 to 6.30
Nc1ccc(-c2ccc(Cl)cc2)c(N)n1 [Compound 1i, 3-(4-chlorophenyl)pyridine-2,6-diamine] | 5.06 | 6.10 | < 6.00
Nc1ccc(-c2cc(Cl)ccc2Cl)c(N)n1 [Compound 1l, 3-(2,5-dichlorophenyl) pyridine-2,6-diamine] | 4.57 | 6.47 | 6.30 to 7.00
CC(C)c1ccccc1-c1ccc(N)nc1N [Compound 1e, 3-(2-isopropylphenyl) pyridine-2,6-diamine] | 6.01 | 8.10 | 6.30 to 7.00
Nc1ccc(-c2ccc(Cl)c(Cl)c2)c(N)n1 [Compound 1n, 3-(3,4-dichlorophenyl) pyridine-2,6-diamine] | 5.59 | 6.50 | < 6.00
Nc1ccc(-c2cccc(Cl)c2)c(N)n1 [Compound 1h, 3-(3-chlorophenyl)pyridine-2,6-diamine] | 6.52 | 7.05 | 6.00 to 6.30
Nc1ccc(-c2ccccc2OC2CCCC2)c(N)n1 [Compound 2i, 3-(2-(cyclopentyloxy)phenyl)pyridine-2,6-diamine] | 6.55 | 8.40 | 6.30 to 7.00
COCc1nc(N)ccc1-c1ccccc1OC [Compound 6e, 6-(methoxymethyl)-5-(2-methoxyphenyl)pyridin-2-amine] | 4.73 | 6.34 | < 6.00

Structure (SMILES) | pKi (hNPFFR2) | pKi (hNPFFR1) | pIC50 [1]
COc1ccccc1-c1ccc(N)nc1N [Compound 2b, 3-(2-methoxyphenyl) pyridine-2,6-diamine] | 5.52 | 7.86 | 6.30 to 7.00
Cc1nc(N)ccc1-c1cccc(Cl)c1Cl [Compound 6b, 5-(2,3-dichlorophenyl)-6-methylpyridin-2-amine] | 5.70 | 7.09 | 6.00 to 6.30
COc1cc(F)ccc1-c1ccc(N)nc1N [Compound 2k, 3-(4-fluoro-2-methoxyphenyl) pyridine-2,6-diamine] | 5.49 | 7.56 | 6.00 to 6.30
Nc1ccc(-c2cccc(Cl)c2Cl)cn1 [Compound 6a, 5-(2,3-dichlorophenyl)pyridin-2-amine] | 5.38 | 6.24 | < 6.00
CCc1ccccc1-c1ccc(N)nc1N [Compound 1d, 3-(2-ethylphenyl)pyridine-2,6-diamine] | 5.70 | 8.21 | 6.30 to 7.00
Nc1ccc(-c2ccccc2Cl)c(N)n1 [Compound 1b, 3-(2-chlorophenyl)pyridine-2,6-diamine] | 5.89 | 7.41 | 6.00 to 6.30
Nc1ccc(-c2ccc(Cl)cc2Cl)c(N)n1 [Compound 1k, 3-(2,4-dichlorophenyl) pyridine-2,6-diamine] | 5.93 | 7.55 | 6.30 to 7.00
CCCCOc1ccccc1-c1ccc(N)nc1N [Compound 2e, 3-(2-butoxyphenyl)pyridine-2,6-diamine] | 5.74 | 7.98 | 6.30 to 7.00
Nc1ccc(-c2ccccc2O)c(N)n1 [Compound 2a, 2-(2,6-diaminopyridin-3-yl)phenol] | 5.96 | 7.93 | 6.00 to 6.30
CCOc1ccccc1-c1ccc(N)nc1N [Compound 2d, 3-(2-ethoxyphenyl)pyridine-2,6-diamine] | 6.15 | 7.82 | 6.30 to 7.00
COCc1ccccc1-c1ccc(N)nc1N [Compound 1g, 3-(2-(methoxymethyl)phenyl) pyridine-2,6-diamine] | 5.92 | 7.24 | 6.00 to 6.30
CCc1nc(N)ccc1-c1ccccc1OC [Compound 6d, 6-ethyl-5-(2-methoxyphenyl)pyridin-2-amine] | 6.02 | 7.82 | 6.30 to 7.00
CC(C)Oc1ccccc1-c1ccc(N)nc1N [Compound 2f, 3-(2-isopropoxyphenyl)pyridine-2,6-diamine] | 5.68 | 7.95 | 6.30 to 7.00
Nc1ccc(Cc2ccc(F)cc2)c(N)n1 [Compound 10b, 3-(4-fluorobenzyl)pyridine-2,6-diamine] | 5.38 | 6.91 | < 6.00
CNc1nc(N)ccc1-c1cccc(Cl)c1Cl [Compound 5a, 3-(2,3-dichlorophenyl)-N2-methylpyridine-2,6-diamine] | 5.64 | 7.09 | < 6.00
CC(C)COc1ccccc1-c1ccc(N)nc1N [Compound 2g, 3-(2-isobutoxyphenyl) pyridine-2,6-diamine] | 6.15 | 8.05 | 6.30 to 7.00
Nc1ccc(Cc2cccc(Cl)c2)c(N)n1 [Compound 10d, 3-(3-chlorobenzyl)pyridine-2,6-diamine] | 6.05 | 7.72 | 6.00 to 6.30
COc1ccc(-c2ccc(N)nc2N)c(OC)c1 [Compound 2m] | 5.73 | 7.34 | < 6.00
